Results from patent US20240352000A1, “NOVEL PYRIMIDINE-2,4-DIAMINE DERIVATIVES, PREPARATION METHOD THEREFOR, AND PHARMACEUTICAL COMPOSITION CONTAINING SAME AS ACTIVE INGREDIENT FOR PREVENTION OR TREATMENT OF CANCER” (KOREA RESEARCH INSTITUTE OF CHEMICAL TECHNOLOGY, priority 2021, published 2024).

Key:
Ba/F3 EGFR del19 = assay: CellTiter-Glo cell viability, Ba/F3 EGFR del19; assay type: cell-based; conditions: 72 hours
Protocol: (§1) An experiment to measure the activity of the compounds of the present invention against the mutant Ba/F3 EGFR cell line was performed as follows using the CellTiter-Glo system sold by Promega. The CellTiter-Glo assay is a method to confirm the cell viability by measuring ATP present in cells in cell culture. For the Ba/F3 EGFR del19, Ba/F3 EGFR del19/T790M, Ba/F3 del19/T790M/C797S mutant cell line, a cell line provided by Crown Bioscience was purchased and used. The Ba/F3 EGFR del19, Ba/F3 EGFR del19/T790M, Ba/F3 del19/T790M/C797S mutant cell line was cultured in RPMI containing 10% FBS and 1% penicillin-streptomycin with 1 μg of puromycin in an incubator at 37° C. and 5% CO2.
(§2) Analysis of the inhibitory ability effect of the compounds against EGFR was conducted according to the following analysis reaction recipe.
(§3) 2500 cells/90 μL were passaged and cultured in a 96-well cell culture plate, and after 24 hours, treated with the compound represented by Formula 1 at a concentration of 0, 0.01, 0.03, 0.1, 0.3, 1, 3, and 10 (μM). After reaction for 72 hours, the plate treated with the compound was left at room temperature for 30 minutes, then further treated with 100 μl of reagent, and shaken at room temperature for 10 minutes. Finally, the ratio of fluorescence values at 570 nm was obtained using the equipment to quantitatively measure and confirmed the inhibitory ability of the compounds. The measurement values measured at eight compound concentrations were analyzed using the Prism program (version 5.01, Graphpad Software, Inc.), and the IC50 value, which is an indicator of the inhibitory ability of the compound, was calculated.

EGFR A763_Y764insFHEA = EGFR A763_Y764insFHEA (Homo sapiens (Human), UniProt P00533, INS763FHEA); assay: HTRF enzyme assay, EGFR Ex20 insertion mutant enzyme; assay type: biochemical; conditions: recombinant enzyme, 37° C. 2 hours
Protocol: An experiment to measure the activity of the compounds of the present invention against EGFR mutant enzymes was performed as follows using the HTRF system sold by Cisbio. For the EGFR mutant enzyme, EGFR A763_Y764insFHEA enzyme, a recombinant protein provided by SignalChem was purchased and used.
(§4) The composition of the assay buffer used for measuring the activity was 50 mM Tris-HCl pH 7.5, 100 mM NaCl, 7.5 mM MgCl2, 3 mM KCl, 0.01% Tween 20, 0.1% BSA, and 1 mM DTT. Here, an enzyme reaction was performed using ATP at a concentration of […] and a peptide substrate labeled with biotin at a concentration of […]. Analysis of the inhibitory effect of the compounds against the EGFR activity was conducted according to the following analysis reaction recipe. • Component 1: 4 μL of an EGFR mutant enzyme • Component 2: 2 μL of a compound solution • Component 3: 4 μL of ATP and a peptide labeled with biotin
(§5) The enzyme reaction was started by first mixing Component 1 and Component 2 and then adding Component 3. After reaction at 37° C. for 2 hours, […] of measurement solution consisting of streptavidin-XL665 and europium-labeled anti-phosphotyrosine antibody provided by Cisbio was added to the enzyme reaction solution and reacted at room temperature for 1 hour. Finally, the ratio of fluorescence values at 615 nm and 665 nm was obtained using the Envision equipment from Perkin-Elmer to quantitatively measure the enzyme activity and confirmed the inhibitory ability of the compounds. The measurement values measured at seven compound concentrations were analyzed using the Prism program (version 5.01, Graphpad Software, Inc.), and the IC50 value, which is an indicator of the inhibitory ability of the compound, was calculated.

EGFR del19/T790M/C797S = EGFR del19/T790M/C797S (Homo sapiens (Human), UniProt P00533, C797S/DEL746-750/T790M); assay: HTRF enzyme assay, EGFR del19/T790M/C797S mutant enzyme; assay type: biochemical; conditions: enzyme from SignalChem, 37° C. 2 hours
Protocol: An experiment to measure the activity of the compounds of the present invention against EGFR mutant enzymes was performed as follows using the HTRF system sold by Cisbio. For the EGFR del19/T790M mutant enzyme, a recombinant protein provided by Carna Biosciences was purchased and used, and for the EGFR del19/T790M/C797S mutant enzyme, a protein provided by SignalChem was purchased and used as an enzyme source.
as §4, §5

HER2 A775_G776insYVMA = HER2 A775_G776insYVMA (Homo sapiens (Human), UniProt P04626, INS775YVMA); assay: HTRF enzyme assay, HER2 mutant enzyme; assay type: biochemical; conditions: recombinant enzyme, 37° C. 2 hours
Protocol: An experiment to measure the activity of the compounds of the present invention against HER mutant enzymes was performed as follows using the HTRF system sold by Cisbio. For the HER2 mutant enzyme, HER2 A775_G776insYVMA mutant enzyme, a recombinant protein provided by Carna Biosciences was purchased and used.
as §4, with “performed using with ATP at” for “performed using ATP at”, “substrate labeled biotin at” for “substrate labeled with biotin at”, “against the HER2 A775_G776insYVMA mutant activity was” for “against the EGFR activity was”, “μL of a HER2 A775_G776insYVMA mutant enzyme” for “μL of an EGFR mutant enzyme”
as §5

[1] = tested on: Ba/F3 EGFR del19/T790M/C797S; assay: CellTiter-Glo cell viability, Ba/F3 EGFR del19/T790M/C797S; assay type: cell-based; conditions: 72 hours
Protocol: as §1, §2, §3

HER2 A775_G776insYVMA, sequence (P04626 other isoform, or with tags, fused parts or gaps del 1-675/ins YVMA behind 775 limits assumed): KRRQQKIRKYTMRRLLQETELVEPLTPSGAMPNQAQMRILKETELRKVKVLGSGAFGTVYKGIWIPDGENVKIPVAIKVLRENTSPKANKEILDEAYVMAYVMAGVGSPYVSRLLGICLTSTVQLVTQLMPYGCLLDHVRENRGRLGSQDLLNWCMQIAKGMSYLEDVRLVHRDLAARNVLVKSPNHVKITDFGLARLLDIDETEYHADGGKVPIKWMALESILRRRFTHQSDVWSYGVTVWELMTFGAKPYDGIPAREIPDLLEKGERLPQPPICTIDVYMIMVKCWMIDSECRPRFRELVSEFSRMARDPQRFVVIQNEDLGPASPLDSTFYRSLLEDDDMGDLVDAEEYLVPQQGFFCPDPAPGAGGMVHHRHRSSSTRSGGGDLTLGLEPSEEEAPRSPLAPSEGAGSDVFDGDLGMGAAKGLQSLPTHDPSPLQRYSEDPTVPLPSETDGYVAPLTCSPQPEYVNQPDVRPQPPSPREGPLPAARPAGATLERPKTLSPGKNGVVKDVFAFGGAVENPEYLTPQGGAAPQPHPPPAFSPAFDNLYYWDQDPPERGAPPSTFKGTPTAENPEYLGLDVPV
EGFR del19/T790M/C797S, sequence (P00533 other isoform, or with tags, fused parts or gaps T790M/C797S/del 1-694/del 746-750 limits assumed): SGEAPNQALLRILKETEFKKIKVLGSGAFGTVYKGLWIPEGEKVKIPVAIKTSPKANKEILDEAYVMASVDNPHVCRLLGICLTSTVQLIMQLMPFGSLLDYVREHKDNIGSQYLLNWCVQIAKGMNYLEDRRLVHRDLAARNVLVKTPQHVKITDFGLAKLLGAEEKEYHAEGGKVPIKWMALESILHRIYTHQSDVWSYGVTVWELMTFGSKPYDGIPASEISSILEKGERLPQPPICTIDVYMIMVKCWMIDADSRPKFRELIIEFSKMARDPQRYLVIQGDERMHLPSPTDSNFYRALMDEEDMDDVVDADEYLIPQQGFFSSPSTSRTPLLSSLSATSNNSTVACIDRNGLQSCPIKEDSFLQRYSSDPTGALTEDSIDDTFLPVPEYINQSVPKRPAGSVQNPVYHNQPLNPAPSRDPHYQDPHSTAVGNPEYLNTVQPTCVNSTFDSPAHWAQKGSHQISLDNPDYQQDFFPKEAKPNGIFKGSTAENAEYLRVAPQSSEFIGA
EGFR A763_Y764insFHEA, sequence (P00533 other isoform, or with tags, fused parts or gaps del 1-694/ins FHEA behind 763 limits assumed): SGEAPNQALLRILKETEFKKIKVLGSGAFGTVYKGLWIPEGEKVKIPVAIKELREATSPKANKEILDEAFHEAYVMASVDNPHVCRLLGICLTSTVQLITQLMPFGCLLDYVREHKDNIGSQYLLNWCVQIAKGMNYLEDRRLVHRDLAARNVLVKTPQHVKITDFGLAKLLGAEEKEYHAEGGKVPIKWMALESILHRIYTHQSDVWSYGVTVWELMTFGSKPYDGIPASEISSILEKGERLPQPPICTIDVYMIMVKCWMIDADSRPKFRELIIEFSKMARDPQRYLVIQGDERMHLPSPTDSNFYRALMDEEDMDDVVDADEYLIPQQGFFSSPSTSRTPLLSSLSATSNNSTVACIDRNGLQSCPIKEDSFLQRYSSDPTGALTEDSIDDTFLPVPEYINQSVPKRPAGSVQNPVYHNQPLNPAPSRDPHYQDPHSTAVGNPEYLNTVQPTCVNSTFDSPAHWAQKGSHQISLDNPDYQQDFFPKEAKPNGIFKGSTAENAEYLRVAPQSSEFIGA

Row | Compound | IC50 (Ba/F3 EGFR del19) | IC50 (EGFR A763_Y764insFHEA) | IC50 (EGFR del19/T790M/C797S) | IC50 (HER2 A775_G776insYVMA) | IC50 [1]
1 | COc1cc(N2CCC(N3CCN(C)CC3)CC2)ccc1Nc1ncc(Cl)c(Nc2cccc3c2N(S(C)(=O)=O)CC3)n1 [Example 2, 5-chloro-N2-(2-methoxy-4-(4-(4-methylpiperazin-1-yl)piperidin-1-yl)phenyl)-N4-(1-(methylsulfonyl)indolin-7-yl)pyrimidine-2,4-diamine] | < 30 nM | 1.7 nM | < 1 nM | 1 nM | < 100 nM
2 | COc1cc(N2CCC(N3CCN(C)CC3)CC2)ccc1Nc1ncc(Cl)c(Nc2cccc3c2N(S(C)(=O)=O)CCC3)n1 [Example 5, 5-chloro-N2-(2-methoxy-4-(4-(4-methylpiperazin-1-yl)piperidin-1-yl)phenyl)-N4-(1-(methylsulfonyl)-1,2,3,4-tetrahydroquinolin-8-yl)pyrimidine-2,4-diamine] | < 30 nM | 11 nM | < 1 nM | 3 nM | < 30 nM
